Measurements published in patent US11654167B2, “Pharmaceutical composition based on bacteriophages against F. nucleatum; use in the treatment of diseases associated with this pathogen” (priority 2016, dated 2023).

Tests used:
[1] = system: F. nucleatum; experiment: in vivo bacteria count of F. nucleatum in co-infected rats; design: species or system Sprague Dawley rat; settings: chlorhexidine 0.12% local cleaning and/or amoxicillin (50 mg/Kg) in water
Protocol: An evaluation is performed to determine the effect of these treatments on the microbiological count associated with periodontal destruction in Sprague Dawley rat models inoculated with P. gingivalis and F. nucleatum, the main pathogens of the etiology of periodontal disease.
(§1) Methodology consists in co-infecting rats with P. gingivalis and F. nucleatum, and treating or not treating them with the mixture of bacteriophages Fnpϕ02-14, Fnpϕ11 and Fnnϕ107 at different MOI. The procedure for each stage is described below:
(§2) Finally, on week 10, the sacrifice of the rats of the group is performed. The initial treatment of local cleaning with CHX 0.12% and the local administration of the bacteria mixture is performed under anesthesia for 5-10 sec. with isoflurane gas. The sacrifice of the rats was performed with an anesthesia overdose of Ketamine:Xylazine (2:1).
(§3) The mixture of the three lytic bacteriophages Fnpϕ02-14, Fnpϕ11 and Fnnϕ107, specific for F. nucleatum, is performed, with a concentration of 10^8, 10^10 and 10^8 UFP/mL, respectively. Afterwards, it was kept at 4° C. until it was used.
Each research group is composed by 3 subjects per cage, and there ware a number of 6 subjects per group. […]

[2] = system: F. nucleatum; experiment: detection of F. nucleatum by PCR in co-infected rats; assay type: in vivo, Sprague Dawley rat; settings: chlorhexidine 0.12% and/or amoxicillin
Protocol: as §1, §2, §3
Each research group is composed by 3 subjects per cage, and there ware a number of 6 subjects per group. The research groups are the following: Group 1 (Continuous treatment phage), in which the administration of the mixture of bacteriophages in a multiplicity of infection (MOI) of 0.01 (1 bacteria for 100 phages) is performed, in the same inoculation times as the bacteria mixture (week 2, 4, 6 and 8), for 4 days every time. […]

[3] = system: gingival tissue associated with the first molar; experiment: histology of gingival tissue (hematoxylin-eosin), inflammatory response; assay type: in vivo, Sprague Dawley rat; settings: chlorhexidine 0.12% and/or amoxicillin (50 mg/Kg)
Protocol: In order to perform the analysis of gingival tissue associated with the first molar once the piece is worn out, this one is fixed in a solution of paraformaldehyde at 10% for 24 hours. Afterwards, the bone is decalcified in an […] solution for 24 hours. The decalcified tissue was soaked in paraffin blocks, in order to be cut afterwards by a microtome in transversal sections for 4μ, in order to be finally stained with the hematoxylin-eosin staining. […] The presence or absence of inflammation in the tissue was examined by using the following parameters: Hematopoietic distribution, presence of vasodilation, thickness of keratinized epithelial tissue, presence of immune cells (lymphocytes, monocytes, polymorph nuclear, etc.), prisoners of inflammatory focus and cell infiltration in keratinized epithelium. In this way, the manifestations of acute or chronic inflammatory response and the normal, incipient, or established inflammatory response were determined.

[4] = system: RANKL and OPG; experiment: bone reabsorption indicators RANKL and OPG in plasma by indirect ELISA; assay type: in vivo, Sprague Dawley rat; settings: chlorhexidine 0.12% and/or amoxicillin
Protocol: The determination of bone reabsorption of the different subjects of treatment is performed based on measuring the molecules associated with this type of physiological response. The levels of RANKL and OPG molecules are measured by Enzyme-Linked ImmunoSorbent Assay (ELISA), specifically the ELISA indirect type, performed from a plasma sample. The blood sample was extracted as follows: the rat is deeply anesthetized with ketamine:xylazine, via the intraperitoneal route. The rat is treated with heparin 2 minutes before surgery, also via the intraperitoneal route with 200-300 μL. […]
Prior to the use of plasma, a quantification of proteins (mg/mL) of each sample is performed by the concentrated Bradford protocol (5×). […] Finally, the absorbance is measured at 595 nm in a plate reader (SQ-2800 model spectrophotometer, United Products & Instruments Inc., Dayton, USA). […]
It is mixed and protected from the light. […] Afterwards, in order to stop the reaction, 100 μL of NaOH 3N, in order to finally read the absorbency of each well at 405 nm in an ELISA reader. • In order to obtain the values of concentration for each sample, the Lambert-Beer formula was used: Abs405=ε*d*[mM]; • where ε: extinction coefficient 18.5*10^3 M^−1 cm^−1 and d: length of the well 1 cm. […]

[5] = system: alveolar bone of the first molar; experiment: bone loss of alveolar bone of the first molar; assay type: in vivo, Sprague Dawley rat; settings: chlorhexidine 0.12% and/or amoxicillin
Protocol: In order to determine bone loss, we measured directly the alveolar bone of the first molar in the hemi sectioned right jaw of each subject. In order to obtain the alveolar bone, the jaw extraction is performed and autoclaved for 20 min. The first cleaning is performed, removing the associated tissue. Afterwards, the bones are soaked in hydrogen peroxide at 3% for all night at room temperature. After this time, the pieces were washed with distilled water in order to eliminate any remainder of adhered tissue; the bone is brushed with toothpaste and finally washed with distilled water. Clean jaws are stained with methylene blue at 1% for 15 seconds, and then washed with distilled water to remove the excess of stain. The pieces are left to dry by air, and it is in this moment when the limit cement-enamel appears in the associated dental piece. The measure is obtained by measuring from the exposed base of the root of the tooth to the cement-enamel limit.

Compound | F. nucleatum count after versus before treatment [1] | detection of F. nucleatum by PCR, post-treatment versus pre-treatment samples [2] | inflammatory response in histological sections [3] | ratio RANKL/OPG versus control group without treatment [4] | bone loss of alveolar bone versus control group [5]
[H]/N=C(\N/C(=N/[H])NCCCCCCNC(=N)NC(=N)Nc1ccc(Cl)cc1)Nc1ccc(Cl)cc1 [chlorhexidine] | tendency to reducing bacteria count | lower count of positive detections | presence of an active acute inflammatory response | do not present significant differences | do not avoid bone loss
CC1(C)S[C@@H]2[C@H](NC(=O)[C@H](N)c3ccc(O)cc3)C(=O)N2[C@H]1C(=O)O [amoxicillin] | only the count in the post mortem sample decreases | lower count of positive detections | presence of an acute incipient inflammatory response | present significant differences | do not avoid bone loss
